Results: patent US12109266B2, “Modulating gabarap to modulate immunogenic cell death” (Dana-Farber Cancer Institute, Inc., priority 2020, dated 2024)
Entries after “also recorded” stand apart in the source; their conditions may differ.

Assays:
HR-SMM = conditions: cited from earlier work
MM cell lines = conditions: different MM cell lines; cited from earlier work
[1] = system: type-I IFN response in AMO1 and NCI-H929 MM cells; experiment: Type-I IFN response in MM cells (RNA-seq, qRT-PCR, ELISA); format: cell-based, human; conditions: H929; STING agonist 10 uM with BTZ 5 nM
Description: Total RNA from multiple myeloma cells was prepared with TRIzol™ (ThermoFisher Scientific) and RNA Clean and Concentrator™-5 kit (Zymo Research) following the product instructions. RNA integrity and quantity was assessed by NanoDrop Spectrophotometer (ThermoFisher Scientific). For analysis of mRNA expression, oligo-dT-primed cDNA was obtained using the High Capacity cDNA Reverse Transcription Kit (ThermoFisher Scientific), and used as template to quantify: human and murine IFNA1 (Hs03044218_g1, Mm03030145_gH), human and murine IFNB1 (Hs01077958_s1, Mm00439552_s1), human and murine CXCL9 (Hs00171065_ml, Mm00434946_ml), and human and murine GAPDH (Hs02786624_g1, Mm99999915_g1). Analysis was determined by RT-PCR using TaqMan®Fast Universal PCR Master Mix on a 7500 Fast Real-Time PCR System (ThermoFisher Scientific). Comparative RT-PCR was performed in triplicate. Relative expression was calculated using the comparative […] (Ct) method.
AMO1^WT and STING^KO cells were either untreated or treated with BTZ for 24 h. Supernatant was collected, and secretion of CXCL9 chemokines was analyzed by MIG (CXCL9) Human Instant ELISA™ Kit (#BMS285INST, ThermoFisher Scientific).
AMO1 WT and STING^KO were cultured for 16 h in the presence of absence of BTZ (5 nM). RNA was extracted as previously described and submitted to NovaSeq RNAseq analysis followed by VIPER NGS Analysis pipeline (Cornwell et al. (2018) BMC Bioinformatics; 19(1):135). Lists of DEGs were applied to the GSEA software. RNAseq data have been submitted to Gene Expression Omnibus (accession number: GSE171837).

5TGM1 tumors [2] = experiment: In vivo tumor growth analysis; design: species or system mouse
Description: (§1) 6-week old female immunodeficient NOD.CB17-Prkdcscid/NCrCrl (NOD/SCID) mice (Charles River) and immunocompetent C57BL/KaLwRijHsd (Envigo) mice were housed in an animal facility at the Dana-Farber Cancer Institute (DFCI). All experiments were performed after approval by the Animal Ethics Committee of the DFCI and performed using institutional guidelines.
To assess the effect of BTZ in the absence of an immune system, NOD/SCID mice were subcutaneously injected with 1×10^6 5TGM1 WT cells in a 1:1 ratio with Matrigel® (Corning); to assess BTZ in an immunocompetent host, C57BL/KaLwRijHsd mice were injected with 1×10^6 5TGM1 either WT or calrKO in the same ratio with Matrigel®. When tumor became measurable, mice (5/group) were randomized to receive either PBS or BTZ administered intra peritoneally (i.p.) 0.5 mg/kg twice/week for 2 weeks. Tumor sizes were measured and mice were sacrificed when tumors reached 2 cm in diameter or ulceration or major compromise in quality of life. A parallel experiment was performed to allow for tumor harvesting after two injections i.p. of BTZ for RNA-seq analysis, as detailed below.
as §1, with “(NOD/SCID)” for “(NOD/SCID) mice”, “in the” for “in an”, “at DFCI.” for “at the Dana-Farber Cancer Institute (DFCI).”
(§2) NOD/SCID and C57BL/KaLwRijHsd mice were subcutaneously (sc) injected with 1×10^6 5TGM1 either WT or Calr^KO cells in PBS. When tumor became measurable, mice were randomized to receive either PBS or BTZ administered intra peritoneally (i.p.) 0.5 mg/kg twice/week for 2 weeks. Tumor sizes were measured as previously described (46), and mice were sacrificed when tumors reached 2 cm in diameter or ulceration or major compromise in quality of life. A parallel experiment was performed to allow for tumor harvesting after two injections ip of BTZ for RNA-seq analysis, as detailed below. For BTZ and STING agonist combination studies, C57BL/KaLwRijHsd (n=5/group) and SCID/NOD (n=6/group) mice bearing 5TGM1 WT and C57BL/KaLwRijHsd mice (n=5/group) bearing 5TGM1 Sting^KO tumors were randomized to receive: PBS, BTZ (0.375 mg/kg twice a week for 2 weeks, i.p.), ADU-S100 (100 μg) administered in the peritumoral area (day 1 and 2), or a combination. Tumor sizes were measured as described above. A parallel experiment in C57BL/KaLwRijHsd mice was performed to allow for tumor harvesting after one administration of either BTZ or ADU-S100. Tumors were fixed in 10% formalin for 24 h, and then maintained in 70% ethanol prior to paraffin embedding and processing for IHC to detect CD3 (#nb600 Ab, Novus Bio).

5TGM1 MM cells = experiment: Cell Counting Kit-8 (CCK-8) proliferation assay; format: cell-based, murine; conditions: ADU-S100 0-5 uM, 72 hr
Description: Cell viability was evaluated by Cell Counting Kit-8 (CCK-8) assay (Dojindo Molecular Technologies).

cGAS/STING pathway = experiment: Western blot of cGAS/STING pathway; format: cell-based, human; conditions: AMO1; ADU-S100 10 uM with BTZ 5 nM
Description: Cell lysis was performed in RIPA buffer (Boston Bio Products) supplemented with Halt protease and phosphatase inhibitor cocktail (ThermoFisher Scientific). SDS-PAGE was performed on NuPage Bis-Tris gels (ThermoFisher Scientific) using MOPS or MES running buffer. Gels were dry transferred onto 0.45 μm nitrocellulose membranes using the iBlot® Dry Blotting System (ThermoFisher Scientific). The following Abs were purchased from Cell Signaling Technology: EIF2A (#5324), p-EIF2A (#3398), ATF4 (#11815), CHOP (2895), CALR (#12238), cGAS (#15102), TBK1 (#3504), pTBK1 (#5483), pIRF3 (#29047), STING (#13647). GAPDH (#2118) and B-ACTIN (#4970) were used as loading controls.

5TGM1 tumors [3] = experiment: IHC CD3 staining of tumors; format: in vivo, mouse; conditions: tumors retrieved after one administration of the drugs
Description: as §2

[4] = system: AMO1, H929 and KMS11 MM cells; experiment: Phagocytosis assay of MM cells by monocyte-derived DCs; format: cell-based, human; conditions: AMO1 GABARAP^KO after BTZ, rCALR 3 ug/10^6 cells
Description: Mo-DCs were generated from CD14+ peripheral blood monocytes were positively selected using magnetic beads (Miltenyi Biotec) and cultured for 6 days in mo-DC differentiation medium containing GM-CSF and IL-4 (130-094-812; Miltenyi Biotec) to generate Mo-DCs. AMO1, KMS11 and H929 cells lines, as well as patient MM cells, were stained with CellTrace™ Far Red (ThermoFisher Scientific), cultured with or without BTZ (for 16 h), and then incubated in 48-well plates for 4 h at 1:1 ratio with CellTrace™ CFSE stained Mo-DCs. Cells were then collected, and phagocytosis analysis was performed by flow cytometry and confocal microscopy. Analagous phagocytosis experiments was performed using 5TGM1 murine MM and immature murine DC line JAWSII.
Collected cells were analyzed using the BD LRSFortessa™ X-20 flow cytometer. Mo-DCs that engulfed MM cells were CFSE and FAR-RED double positive. Fold increase in percentage of double positive DCs after co-culture with BTZ treated vs untreated MM cells was compared.
Mo-DCs were generated from CD14+ peripheral blood monocytes from healthy donors, positively selected using magnetic beads (Miltenyi Biotec), cultured for 6 days in mo-DC differentiation medium containing GM-CSF and IL-4 (130-094-812; Miltenyi Biotec). AMO1 and NCI-H929 cells lines, as well as patient MM cells, were stained with CellTrace™ Far Red (ThermoFisher Scientific), cultured with or without BTZ for 16 h, and then incubated in 48-well plates for 4 h at 1:1 ratio with CellTrace™ CFSE stained Mo-DCs. Cells were then collected, and phagocytosis analysis was performed by flow cytometry and confocal microscopy. Analagous phagocytosis experiments were performed using 5TGM1 murine multiple myeloma and JAWSII cell line that was used as source of immature murine DCs.
Flow cytometry-based assay: Collected cells were analyzed using the BD LRSFortessa X-20 flow cytometer. Mo-DCs that engulfed MM cells were CFSE and FAR-RED double positive. Fold increase in percentage of double positive DCs after co-culture with BTZ treated vs untreated MM cells was compared.

Molecule: Nc1cccc2c1CN(C1CCC(=O)NC1=O)C2=O (centres unmarked) [lenalidomide]
- progression of HR-SMM (HR-SMM; lenalidomide alone): delay progressions of HR-SMM
- treatment discontinuation and secondary cancers (HR-SMM; lenalidomide cohort): high rate of treatment discontinuation and secondary cancers

Molecule: CC(C)C[C@H](NC(=O)[C@H](CCc1ccccc1)NC(=O)CN1CCOCC1)C(=O)N[C@@H](Cc1ccccc1)C(=O)N[C@@H](CC(C)C)C(=O)[C@@]1(C)CO1 [carfilzomib]
- CRT exposure (MM cell lines): shown to expose CRT in different MM cell lines

Molecule: Nc1ncnc2c1ncn2[C@@H]1O[C@@H]2COP(=O)([S-])O[C@@H]3[C@H](O)[C@@H](COP([O-])(=S)O[C@H]2[C@H]1O)O[C@H]3n1cnc2c(N)ncnc21.[Na+].[Na+] (some centres unmarked) [ADU-S100]
- transcription of IFNA1 and IFNB1 [1]: increased transcription of IFNA1 and IFNB1
- anti-tumor activity (5TGM1 tumors [2]; 5TGM1 Sting^KO tumors in immunocompetent mice): still retained a partial anti-multiple myeloma activity
- anti-tumor effects (5TGM1 tumors [2]; 5TGM1 WT in immunodeficient NOD/SCID mice, BTZ 0.375 mg/kg, ADU-S100 100 ug day 1 and 2): abrogated the anti-tumor effects
- direct killing of MM cells (live cells vs untreated) (5TGM1 MM cells): sensitive to a direct killing
- phosphorylated TBK1 (cGAS/STING pathway): higher levels of phosphorylated TBK1 kinase
- CD3+ T cell infiltration within tumors (IHC) (5TGM1 tumors [3]): increased CD3+ T cell infiltration within tumors

B1: rCRT: recombinant calreticulin purchased from Sigma (SRP8001) (protein)
chain: EPAVYFKEQFLDGDGWTSRWIESKHKSDFGKFVLSSGKFYGDEEKDKGLQTSQDARFYALSASFEPFSNKGQTLVVQFTVKHEQNIDCGGGYVKLFPNSLDQTDMHGDSEYNIMFGPDICGPGTKKVHVIFNYKGKNVLINKDIRCKDDEFTHLYTLIVRPDNTYEVKIDNSQVESGSLEDDWDFLPPKKIKDPDASKPEDWDERAKIDDPTDSKPEDWDKPEHIPDPDAKKPEDWDEEMDGEWEPPVIQNPEYKGEWKPRQIDNPDYKGTWIHPEIDNPEYSPDPSIYAYDNFGVLGLDLWQVKSGTIFDNFLITNDEAYAEEFGNETWGVTKAAEKQMKDKQDEEQRLKEEEEDKKRKEEEEAEDKEDDEDKDEDEEDEEDKEEDEEEDVPGQAKDEL
- phagocytosis of MM cells by DCs with recombinant calreticulin add-back [4]: confirmed the on-target effect GABARAP^KO; also recorded: restored phagocytosis of MM cells after BTZ
- phagocytosis of MM cells by DCs with recombinant calreticulin add-back ([4]; listed as recombinant CRT): increases the immune response against the cancer cells
